According to US20240409585A1, “MACROCYCLIC IMMUNOMODULATORS” (priority 2021, published 2024):
Numbered stars: 1 amine (or outer) side, 2 acyl side, 3 side chain; on linkers, the order of the positions; unused ones are H or OH. Bridge positions count the residues as written; N and C are the ends. Square brackets hold non-standard residues; d marks the D form. Peptide text beside a SMILES is read from it. * marks the point of attachment. Bip(4'-NHAc) = CC(=O)Nc1ccc(-c2ccc(C[C@H](N)C(=O)O)cc2)cc1; X52 = Nc1ccc(-c2ccc(C[C@H](N[*:1])C(=O)[*:2])cc2)cn1; Phe(3-CF3) = N[C@@H](Cc1cccc(C(F)(F)F)c1)C(=O)O; Ala(morpholin-4-yl) = N[C@@H](CN1CCOCC1)C(=O)O; Phe(4-CONH2) = NC(=O)c1ccc(C[C@H](N)C(=O)O)cc1; Phe(4-COOH) = N[C@@H](Cc1ccc(C(=O)O)cc1)C(=O)O; Bip = N[C@@H](Cc1ccc(-c2ccccc2)cc1)C(=O)O; Abu(3R-NH2) = C[C@@H](N)[C@H](N)C(=O)O; Phe(3-Me) = Cc1cccc(C[C@H](N)C(=O)O)c1; Phe(4-Me) = Cc1ccc(C[C@H](N)C(=O)O)cc1; Abu(3S-NH2) = C[C@H](N)[C@H](N)C(=O)O; Val(3-OH) = CC(C)(O)[C@H](N)C(=O)O; hPhe = N[C@@H](CCc1ccccc1)C(=O)O; Aad = N[C@@H](CCCC(=O)O)C(=O)O; Cha = N[C@@H](CC1CCCCC1)C(=O)O; Agb = N=C(N)NCC[C@H](N)C(=O)O; Carboxymethyl = O=C(O)C*; NMeA = CN[C@@H](C)C(=O)O; Orn = NCCC[C@H](N)C(=O)O; Dab = NCC[C@H](N)C(=O)O

These compounds were tested against T1, Alexa fluor-647 labeled human PD-L1-Ig binding to Jurkat cell line over-expressing human PD-1 (Homo sapiens, UniProt Q15116) (assay: Jurkat-PD-1 Cell Binding High-Content Screening Assay (CBA): Method 3 (Alexa fluor-647 labeled PD-L1-Ig)). Details: Jurkat-PD-1 cells, Alexa fluor-647 labeled PD-L1-Ig 177 nM; head μM; read-out: CBA Method 3 μM.
T1 construct: expressed in transfected cells; host or cells: Jurkat
Summary of the method: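 Readout by high-content imaging of PFA-fixed, Hoechst-stained cells after 1 h with 177 nM (final) Alexa fluor-647 PD-L1-Ig. Compound was added first to hPD-1 Jurkat cells in RPMI plus 10% FCS for 2 h at 37 °C.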

T1 sequence (Q15116 25-288): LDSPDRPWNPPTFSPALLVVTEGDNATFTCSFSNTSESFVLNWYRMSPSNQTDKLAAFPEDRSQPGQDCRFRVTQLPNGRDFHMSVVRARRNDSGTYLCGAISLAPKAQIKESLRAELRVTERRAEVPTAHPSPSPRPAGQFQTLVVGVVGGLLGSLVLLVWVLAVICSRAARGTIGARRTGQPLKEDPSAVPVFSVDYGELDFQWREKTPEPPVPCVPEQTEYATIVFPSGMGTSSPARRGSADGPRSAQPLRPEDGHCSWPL

Row | IC50 | Compound
1 | 0.11 µM | CC(C)C[C@H]1NC(=O)[C@H](C)N(C)C(=O)[C@H](Cc2ccc(C(N)=O)cc2)NC(=O)[C@H](Cc2ccc(-c3ccccc3)cc2)NC(=O)[C@H](Cc2ccc(OCC(=O)O)cc2)NC(=O)[C@H](Cc2cccc(C(F)(F)F)c2)NC(=O)[C@H](CC(=O)O)NC(=O)[C@H](Cc2ccc(O)cc2)NC(=O)[C@H](CN2CCOCC2)NC(=O)CSC[C@@H](C(=O)N[C@@H](CCN)C(N)=O)NC(=O)[C@H](CCCN)NC(=O)[C@H](C(C)C)NC(=O)[C@H](CC2CCCCC2)NC(=O)[C@H](CCN)NC1=O [Example 5262] ({CH2CO}-[Ala(morpholin-4-yl)]YD[Phe(3-CF3)]Y(Carboxymethyl)[Bip][Phe(4-CONH2)][NMeA][dL][Dab][Cha]V[Orn]C[Dab]-NH2; thioether N-14)
2 | 0.01 µM | Cc1cccc(C[C@@H]2NC(=O)[C@H](CC(=O)O)NC(=O)[C@H](Cc3ccc(OCC(=O)O)cc3)NC(=O)[C@H](CCNC(=N)N)NC(=O)CSC[C@@H](C(=O)N[C@@H](CCN)C(N)=O)NC(=O)[C@H](CCCN)NC(=O)[C@H](C(C)C)NC(=O)[C@H](CC3CCCCC3)NC(=O)[C@H](CCN)NC(=O)[C@@H](CC(C)C)NC(=O)[C@H](C)N(C)C(=O)[C@H](CCC(N)=O)NC(=O)[C@H](Cc3ccc(-c4ccccc4)cc3)NC(=O)[C@H](Cc3ccc(C(=O)O)cc3)NC2=O)c1 [Example 5182] ({CH2CO}-[Agb]Y(Carboxymethyl)D[Phe(3-Me)][Phe(4-COOH)][Bip]Q[NMeA][dL][Dab][Cha]V[Orn]C[Dab]-NH2; thioether N-14)
3 | 0.03 µM | CC(=O)Nc1ccc(-c2ccc(C[C@@H]3NC(=O)[C@H](Cc4cccc(C)c4)NC(=O)[C@H](CC(=O)O)NC(=O)[C@H](Cc4ccc(C(=O)O)cc4)NC(=O)[C@H](CN4CCOCC4)NC(=O)CSC[C@@H](C(=O)N[C@@H](CCN)C(N)=O)NC(=O)[C@H](CCCC(N)=O)NC(=O)[C@H](C(C)C)NC(=O)[C@H](CC4CCCCC4)NC(=O)[C@H](CCN)NC(=O)[C@@H](CC(C)C)NC(=O)[C@H](C)N(C)C(=O)[C@H](Cc4ccc(C(=O)O)cc4)NC(=O)[C@H](Cc4ccc(-c5ccccc5)cc4)NC3=O)cc2)cc1 [Example 5257] ({CH2CO}-[Ala(morpholin-4-yl)][Phe(4-COOH)]D[Phe(3-Me)][Bip(4'-NHAc)][Bip][Phe(4-COOH)][NMeA][dL][Dab][Cha]V[Aad](NH2)C[Dab]-NH2; thioether N-14)
4 | 0.05 µM | Cc1cccc(C[C@@H]2NC(=O)[C@H](CC(=O)O)NC(=O)[C@H](Cc3ccc(OCC(=O)O)cc3)NC(=O)[C@H](CN3CCOCC3)NC(=O)CSC[C@@H](C(=O)N[C@@H](CCN)C(N)=O)NC(=O)[C@H](CCCN)NC(=O)[C@H](C(C)C)NC(=O)[C@H](CC3CCCCC3)NC(=O)[C@H](CCN)NC(=O)[C@@H](CC(C)C)NC(=O)[C@H](C)N(C)C(=O)[C@H](CCC(N)=O)NC(=O)[C@H](Cc3ccc(-c4ccccc4)cc3)NC(=O)[C@H](Cc3ccc(-c4ccc(N)nc4)cc3)NC2=O)c1 [Example 5104] ({CH2CO}-[Ala(morpholin-4-yl)]Y(Carboxymethyl)D[Phe(3-Me)][X52][Bip]Q[NMeA][dL][Dab][Cha]V[Orn]C[Dab]-NH2; thioether N-14)
5 | 0.02 µM | Cc1cccc(C[C@@H]2NC(=O)[C@H](CC(=O)O)NC(=O)[C@H](Cc3ccc(C(=O)O)cc3)NC(=O)[C@H](C)NC(=O)CSC[C@@H](C(=O)N[C@@H](CCN)C(N)=O)NC(=O)[C@H](CCC(=O)O)NC(=O)[C@H](C(C)C)NC(=O)[C@H](CC3CCCCC3)NC(=O)[C@H](CCN)NC(=O)[C@@H](CC(C)C)NC(=O)[C@H](C)N(C)C(=O)[C@H](Cc3ccc(C(=O)O)cc3)NC(=O)[C@H](Cc3ccc(-c4ccccc4)cc3)NC(=O)[C@H](Cc3ccc(C(=O)O)cc3)NC2=O)c1 [Example 5136] ({CH2CO}-A[Phe(4-COOH)]D[Phe(3-Me)][Phe(4-COOH)][Bip][Phe(4-COOH)][NMeA][dL][Dab][Cha]VEC[Dab]-NH2; thioether N-14)

Same assay, conditions: Jurkat-PD-1 cells, Alexa fluor-647 labeled PD-L1-Ig 177 nM; nM; read-out: CBA Method 3

Row | IC50 | Compound
6 | 0.006 µM | CC(C)C[C@H]1NC(=O)[C@H](C)N(C)C(=O)[C@H](CCC(N)=O)NC(=O)[C@H](Cc2ccc(-c3ccccc3)cc2)NC(=O)[C@H](CCc2ccccc2)NC(=O)[C@H](Cc2cccc(C(F)(F)F)c2)NC(=O)[C@H](CC(=O)O)NC(=O)[C@H](Cc2ccc(OCC(=O)O)cc2)NC(=O)[C@H](CN2CCOCC2)NC(=O)CSC[C@@H](C(=O)N[C@@H](CCN)C(N)=O)NC(=O)[C@H](CCCN)NC(=O)[C@H](C(C)C)NC(=O)[C@H](CC2CCCCC2)NC(=O)[C@H](CCN)NC1=O [Example 5216] ({CH2CO}-[Ala(morpholin-4-yl)]Y(Carboxymethyl)D[Phe(3-CF3)][hPhe][Bip]Q[NMeA][dL][Dab][Cha]V[Orn]C[Dab]-NH2; thioether N-14)
7 | 0.0017 µM | CC(C)C[C@H]1NC(=O)[C@H](C)N(C)C(=O)[C@H](CCC(N)=O)NC(=O)[C@H](Cc2ccc(-c3ccccc3)cc2)NC(=O)[C@H](CCc2ccccc2)NC(=O)[C@H](Cc2cccc(C(F)(F)F)c2)NC(=O)[C@H](CC(=O)O)NC(=O)[C@H](CCC(N)=O)NC(=O)[C@H]([C@@H](C)N)NC(=O)CSC[C@@H](C(=O)N[C@@H](CCN)C(N)=O)NC(=O)[C@H](CCCN)NC(=O)[C@H](C(C)C)NC(=O)[C@H](CC2CCCCC2)NC(=O)[C@H](CCN)NC1=O [Example 5247] ({CH2CO}-[Abu(3R-NH2)]QD[Phe(3-CF3)][hPhe][Bip]Q[NMeA][dL][Dab][Cha]V[Orn]C[Dab]-NH2; thioether N-14)
8 | 0.001 µM | Cc1cccc(C[C@@H]2NC(=O)[C@H](CC(=O)O)NC(=O)[C@H](Cc3ccc(OCC(=O)O)cc3)NC(=O)[C@H](Cc3ccc(O)cc3)NC(=O)CSC[C@@H](C(=O)N[C@@H](CCN)C(N)=O)NC(=O)[C@H](CCCN)NC(=O)[C@H](C(C)C)NC(=O)[C@H](CC3CCCCC3)NC(=O)[C@H](CCN)NC(=O)[C@@H](CC(C)C)NC(=O)[C@H](C)N(C)C(=O)[C@H](CCC(N)=O)NC(=O)[C@H](Cc3ccc(-c4ccccc4)cc3)NC(=O)[C@H](Cc3ccc(C(=O)O)cc3)NC2=O)c1 [Example 5271] ({CH2CO}-YY(Carboxymethyl)D[Phe(3-Me)][Phe(4-COOH)][Bip]Q[NMeA][dL][Dab][Cha]V[Orn]C[Dab]-NH2; thioether N-14)
9 | 0.0049 µM | CC(=O)Nc1ccc(-c2ccc(C[C@@H]3NC(=O)[C@H](Cc4cccc(C)c4)NC(=O)[C@H](CC(=O)O)NC(=O)[C@H](Cc4ccc(C(=O)O)cc4)NC(=O)[C@H](CC4CCCCC4)NC(=O)CSC[C@@H](C(=O)N[C@@H](CCN)C(N)=O)NC(=O)[C@H](CCC(=O)O)NC(=O)[C@H](C(C)C)NC(=O)[C@H](CC4CCCCC4)NC(=O)[C@H](CCN)NC(=O)[C@@H](CC(C)C)NC(=O)[C@H](C)N(C)C(=O)[C@H](Cc4ccc(OCC(=O)O)cc4)NC(=O)[C@H](Cc4ccc(-c5ccccc5)cc4)NC3=O)cc2)cc1 [Example 5202] ({CH2CO}-[Cha][Phe(4-COOH)]D[Phe(3-Me)][Bip(4'-NHAc)][Bip]Y(Carboxymethyl)[NMeA][dL][Dab][Cha]VEC[Dab]-NH2; thioether N-14)
10 | 0.0068 µM | Cc1cccc(C[C@@H]2NC(=O)[C@H](CC(=O)O)NC(=O)[C@H](Cc3ccc(C(=O)O)cc3)NC(=O)[C@H](C)NC(=O)CSC[C@@H](C(=O)N[C@@H](CCN)C(N)=O)NC(=O)[C@H](CC(=O)O)NC(=O)[C@H](C(C)C)NC(=O)[C@H](CC3CCCCC3)NC(=O)[C@H](CCN)NC(=O)[C@@H](CC(C)C)NC(=O)[C@H](C)N(C)C(=O)[C@H](Cc3ccc(C(=O)O)cc3)NC(=O)[C@H](Cc3ccc(-c4ccccc4)cc3)NC(=O)[C@H](Cc3ccc(C(=O)O)cc3)NC2=O)c1 [Example 5135] ({CH2CO}-A[Phe(4-COOH)]D[Phe(3-Me)][Phe(4-COOH)][Bip][Phe(4-COOH)][NMeA][dL][Dab][Cha]VDC[Dab]-NH2; thioether N-14)
11 | 0.0008 µM | Cc1ccc(C[C@@H]2NC(=O)CSC[C@@H](C(=O)N[C@@H](CCN)C(N)=O)NC(=O)[C@H](CCCN)NC(=O)[C@H](C(C)C)NC(=O)[C@H](CC3CCCCC3)NC(=O)[C@H](CCN)NC(=O)[C@@H](CC(C)C)NC(=O)[C@H](C)N(C)C(=O)[C@H](CCC(N)=O)NC(=O)[C@H](Cc3ccc(-c4ccccc4)cc3)NC(=O)[C@H](Cc3ccc(C(=O)O)cc3)NC(=O)[C@H](Cc3cccc(C)c3)NC(=O)[C@H](CC(=O)O)NC(=O)[C@H](Cc3ccc(OCC(=O)O)cc3)NC2=O)cc1 [Example 5289] ({CH2CO}-[Phe(4-Me)]Y(Carboxymethyl)D[Phe(3-Me)][Phe(4-COOH)][Bip]Q[NMeA][dL][Dab][Cha]V[Orn]C[Dab]-NH2; thioether N-14)
12 | 0.0038 µM | CC(C)C[C@H]1NC(=O)[C@H](C)N(C)C(=O)[C@H](Cc2ccc(C(N)=O)cc2)NC(=O)[C@H](Cc2ccc(-c3ccccc3)cc2)NC(=O)[C@H](Cc2ccc(C(=O)O)cc2)NC(=O)[C@H](Cc2cccc(C(F)(F)F)c2)NC(=O)[C@H](CC(=O)O)NC(=O)[C@H](Cc2ccc(C(=O)O)cc2)NC(=O)[C@H]([C@H](C)N)NC(=O)CSC[C@@H](C(=O)N[C@@H](CCN)C(N)=O)NC(=O)[C@H](CO)NC(=O)[C@H](C(C)(C)O)NC(=O)[C@H](CC2CCCCC2)NC(=O)[C@H](CCN)NC1=O [Example 5208] ({CH2CO}-[Abu(3S-NH2)][Phe(4-COOH)]D[Phe(3-CF3)][Phe(4-COOH)][Bip][Phe(4-CONH2)][NMeA][dL][Dab][Cha][Val(3-OH)]SC[Dab]-NH2; thioether N-14)
13 | 0.0044 µM | CC(=O)Nc1ccc(-c2ccc(C[C@@H]3NC(=O)[C@H](Cc4cccc(C(F)(F)F)c4)NC(=O)[C@H](CC(=O)O)NC(=O)[C@H](Cc4ccc(C(=O)O)cc4)NC(=O)[C@H]([C@H](C)N)NC(=O)CSC[C@@H](C(=O)N[C@@H](CCN)C(N)=O)NC(=O)[C@H](CC(N)=O)NC(=O)[C@H](C(C)C)NC(=O)[C@H](CC4CCCCC4)NC(=O)[C@H](CCN)NC(=O)[C@@H](CC(C)C)NC(=O)[C@H](C)N(C)C(=O)[C@H](Cc4ccc(C(N)=O)cc4)NC(=O)[C@H](Cc4ccc(-c5ccccc5)cc4)NC3=O)cc2)cc1 [Example 5109] ({CH2CO}-[Abu(3S-NH2)][Phe(4-COOH)]D[Phe(3-CF3)][Bip(4'-NHAc)][Bip][Phe(4-CONH2)][NMeA][dL][Dab][Cha]VNC[Dab]-NH2; thioether N-14)
